Results as given in PubChem BioAssay (NCI).
Where “and” joins values, the source holds several entries; their conditions need not be identical. Equal entries are not always repeated.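 In this assay, cells in 96-well plates receive the compound at five concentrations for 48 hours. Endpoints are linearly interpolated between the surrounding concentrations. GI50 = concentration required for 50% inhibition of growth. TGI: concentration producing complete growth inhibition.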

Experiments:
Experiment in all cases: DTP human tumour cell line panel, 48 h
HOP-92 NSCLC = tested on: HOP-92 NSCLC
CAKI-1 renal = tested on: CAKI-1 renal
OVCAR-3 ovarian = tested on: OVCAR-3 ovarian
M14 melanoma = tested on: M14 melanoma
BT-549 breast = tested on: BT-549 breast
IGROV1 ovarian = tested on: IGROV1 ovarian
EKVX NSCLC = tested on: EKVX NSCLC
MOLT-4 leukemia = tested on: MOLT-4 leukemia
RXF 393 renal = tested on: RXF 393 renal
K-562 leukemia = tested on: K-562 leukemia

SMILES	GI50 (HOP-92 NSCLC) [µM]	TGI (HOP-92 NSCLC)	GI50 (CAKI-1 renal) [µM]	TGI (CAKI-1 renal)	GI50 (OVCAR-3 ovarian) [µM]	TGI (OVCAR-3 ovarian)	GI50 (M14 melanoma) [µM]	TGI (M14 melanoma)	GI50 (BT-549 breast) [µM]	TGI (BT-549 breast)	GI50 (IGROV1 ovarian) [µM]	TGI (IGROV1 ovarian)	GI50 (EKVX NSCLC) [µM]	TGI (EKVX NSCLC)	GI50 (MOLT-4 leukemia) [µM]	TGI (MOLT-4 leukemia)	GI50 (RXF 393 renal) [µM]	TGI (RXF 393 renal)	GI50 (K-562 leukemia) [µM]	TGI (K-562 leukemia)
Cc1cc(Cl)cc(Cc2cc(Cl)cc(C)c2O)c1O	0.397	2.83 µM	2.32	9.57 µM	2.35	7.83 µM	2.98	11.3 µM	2.46	7.02 µM	5.18	29.5 µM	3.62	68.8 µM	3.45	49.8 µM	2.29	6.91 µM	3.08	12.1 µM
Cc1ccc(OCC2OC(n3cnc4c(Br)nc(Br)nc43)CC2Oc2ccc(C)cc2)cc1 (centres undefined)	1.16	2.55 µM and 5.36 µM	1.2	2.26 µM and 4.03 µM	3.77	14.3 µM and 19.1 µM		10.6 µM and 7.47 µM	9.96	20.6 µM and 34.4 µM	2.71	8.86 µM and 9.89 µM	1.52	3.25 µM and 4.15 µM		4.34 µM and 5.42 µM	13.3	28.2 µM and 22.4 µM	1.94	3.92 µM and > 23.8 µM
COC(=O)[C@]12CC[C@@H](C)[C@H](C)[C@@H]1C1=CC[C@@H]3[C@@]4(C)C(C=O)=C[C@@](C)(COC(=O)/C=C/c5ccccc5)[C@@H]4[C@H](O)C[C@@]3(C)[C@]1(C)CC2	2.19	9.1 µM	3.56	> 100 µM	2.35	5.53 µM	3.33	17.3 µM	6.05	63.9 µM	4.34	66.4 µM	2.86	11.5 µM	2.09	7.36 µM	1.79	4.45 µM	3.53	> 100 µM
C#Cc1cccc(NC(=O)c2ccc(NC(=O)CCl)cc2)c1	11.4	26.4 µM	> 82.5	> 82.5 µM	12.7	25.7 µM	22.2	> 82.5 µM	11.1	23.9 µM	10.6	23.7 µM	> 82.5	> 82.5 µM	12.4	40 µM	23.9	> 82.5 µM	17.4	> 82.5 µM
COc1ccc(/C=C2\c3cc(OC)c(OC)c(OC)c3CC[C@@H]2O)cc1F	25	> 100 µM	0.391	> 100 µM	0.262	> 100 µM	0.274	> 100 µM	0.443	42.7 µM	0.812	> 100 µM	0.823	> 100 µM	0.956	> 100 µM			0.0865	> 100 µM
CCN(Cc1ccc(F)cc1)c1ccc(CO)c(OC)c1	7.29	37.2 µM	4.69	33.3 µM	13.1	27.5 µM	31.1	> 100 µM	7.7	32.7 µM	6.62	27.8 µM			20.1	72.4 µM	9.44	23.6 µM	20	> 92 µM
COc1cnc2c(c1)C(=O)c1c-2n(CCCN2CCNCC2)c(=O)c2cc([N+](=O)[O-])ccc12	1.25	9.91 µM	0.202	1.71 µM	1.19	2.63 µM	0.279	1.49 µM	1.4	9.7 µM			1.29	2.69 µM	0.0365	1.05 µM	0.401	1.94 µM		
C=C1C(=O)O[C@H]2[C@H]1CC/C(COC(=O)NCCCCCCCCNC(=O)OC/C1=C/CC[C@@]3(C)O[C@H]3[C@H]3OC(=O)C(=C)[C@@H]3CC1)=C\CC[C@@]1(C)O[C@@H]21	0.177	0.551 µM	0.657	2.02 µM	0.33	1.06 µM	0.272	0.8 µM	0.257	0.748 µM	1.01	2.61 µM	1.19	2.44 µM	0.33	1.18 µM	0.162	0.322 µM	0.349	1.37 µM
CCC[CH2][Pb]([Cl])([CH2]CCC)[CH2]CCC	0.058	0.196 µM	0.0673	0.199 µM	0.0204	0.0499 µM	0.0192	0.0417 µM	0.031	0.137 µM	0.0603	0.179 µM	0.066	0.218 µM	0.0245	0.731 µM	0.0231	0.0635 µM	0.0277	0.931 µM
O=C(O)CCC(C(=O)O)N1C(=O)C2C3CCC(C3)C2C1=O (centres undefined)		> 100 µM		> 100 µM		> 100 µM		> 100 µM		> 100 µM		> 100 µM		> 100 µM		> 100 µM		> 100 µM		> 100 µM
COc1cc2c(cc1C)NC(=O)/C2=C\c1c[nH]c2ccccc12	10.2	29.9 µM	10.6	32.3 µM	15.4	62.9 µM	12.7	46.1 µM	17.4	36.3 µM	4.44	33.6 µM	10.9	29.7 µM	5.87	43.5 µM	7.82	47.6 µM	8.07	51.5 µM
COc1ccc(N(C)c2nc(Cl)nc3cnn(C)c23)cc1	< 0.01	7.95 µM	< 0.01	> 100 µM	< 0.01	> 100 µM	< 0.01	> 100 µM	0.0207	> 71.6 µM	< 0.0189	> 100 µM	< 0.0178	> 100 µM	0.0193	> 100 µM	< 0.01	> 100 µM	< 0.01	> 100 µM
Cc1ccc(S(=O)(=O)N2CCc3ccc(O)c4c3C2Cc2ccc3c(c2-4)OCO3)cc1 (centres undefined)	0.417	3.51 µM	0.737	22.6 µM	0.286	0.707 µM	0.511	3.86 µM	0.822	12.5 µM	0.708	14.2 µM	4.34	> 100 µM	2.42	20.3 µM	0.853	5.96 µM	0.455	> 100 µM
N#CC1C(=O)NC(c2ccccc2[N+](=O)[O-])c2sc3c(F)cccc3c21 (centres undefined)	11.3	47.3 µM	0.242	5.43 µM	0.318	12.7 µM	16.3	47.5 µM	14.9	61.5 µM	0.0549	5.11 µM	3.41	41.8 µM	15.4	> 73 µM	13.4	56.9 µM	2.39	58.8 µM
CN1CCN(Cc2ccc(NC(=O)c3cncc(C#Cc4cnc(N)c5cnccc45)c3)cc2C(F)(F)F)CC1	0.0725	0.287 µM	0.979	6.61 µM	0.337	8.43 µM	0.0727	0.281 µM	1.08	7.23 µM	0.141	0.649 µM	0.485	4.4 µM	0.172	7.49 µM	0.147	0.565 µM	0.005	0.732 µM
COc1ccc(OC)c(/C=C/c2nc(SCc3ccccc3)n(-c3ccc(Cl)cc3)n2)c1	> 100	> 100 µM	2.09	5.28 µM	3.54	12 µM	4.22	> 100 µM	11.6	38.5 µM	13.1	> 100 µM	9.89	> 100 µM	6.51	> 100 µM	26.6	> 100 µM	4.23	> 100 µM
CCCN1CCC(c2ccc(Nc3nc(Nc4cc(F)ccc4C(N)=O)c4cc[nH]c4n3)c(OC)c2)CC1	0.00586	0.126 µM	3.16	9.56 µM	3.66	7.25 µM	1.58	5.48 µM	4.16	8.19 µM	1.87	7.44 µM	0.725	8.18 µM	4.4	12.3 µM	2.89	6.31 µM	0.681	2.8 µM
CCCCCC[C@H](C)NC(=O)c1ccc(Nc2nc3ccccc3c3occc23)cc1	3	50.4 µM	3.97	50.5 µM	3.11	19.7 µM	2.25	5.37 µM	2.79	6.54 µM	2.46	5.77 µM	2.2	5.42 µM	3.4	> 100 µM	3.88	13.7 µM	8.72	> 100 µM
CN(C)c1ccc(N=C2C=CC(=O)c3ccccc32)cc1	5.06	18.7 µM	3.58	16.3 µM	1.28	3.08 µM	1.79	3.61 µM	7.49	20.5 µM	2.76	9.28 µM			2.45	6.21 µM	3.2	14.5 µM	2	4.75 µM
C=CCc1c(O)c(C(=O)/C=C/c2ccccc2)c(OC)c2ccoc12	1.33	4.82 µM	2.8	11 µM	2.46	7.06 µM	5.36	22.9 µM	2.63	8.09 µM	3.35	11.6 µM	6.13	20.6 µM	2.17	16.6 µM	1.85	5.62 µM	2.87	16.2 µM
COc1cc(/C=C/C(=O)c2c(C)nc3ccccc3c2C)ccc1OCCCN1CCN(C(=O)c2ccco2)CC1		4.74 µM	1.86	9.03 µM	9.46	21.3 µM	11.6	23.8 µM	4.86	23.3 µM	6.7	24.6 µM	7.76	42.6 µM	0.528	8 µM	2.8	10.2 µM	2.57	10.6 µM
CN(C)c1ccc2nc(CC(O)(C(F)(F)F)C(F)(F)F)ccc2c1		> 10 µM		> 10 µM		> 10 µM		> 10 µM		> 10 µM		> 10 µM		> 10 µM		> 10 µM		> 10 µM		> 10 µM
CSc1ccc(C(=O)/C=C/c2ccccc2Cl)cc1	15.5	32 µM	15.4	30.7 µM	8.98	21.9 µM	16.6	36.1 µM	15.4	32.9 µM	4.56	17 µM	19.7	37 µM	24	> 100 µM	4.23	16.4 µM	18.8	58.3 µM
CC1=C([Se]CC(OC(=O)[C@@H](CO)NC(=O)OC(C)(C)C)C(=O)NCCCCCC(=O)OCc2ccccc2)C(=O)c2ccccc2C1=O (some centres undefined)	1.87	3.32 µM	1.8	3.32 µM	1.79	3.19 µM	1.79	3.3 µM	1.73	3.11 µM	1.79	3.37 µM	1.81	3.87 µM	1.39	4.93 µM	2.7	4.18 µM		
COc1ccc2c(c1OC(C)=O)C1=CC(=O)CCC13CCNC3C2 (centres undefined)		> 100 µM		> 100 µM		> 100 µM		> 100 µM		> 100 µM		> 100 µM		> 100 µM		> 100 µM		> 100 µM		> 100 µM
O=C(O[C@H]1CCN2C[C@H]3C[C@H](CN4C(=O)CCC[C@H]34)[C@@H]2C1)c1ccc(O)cc1		> 100 µM		> 100 µM		> 100 µM		> 100 µM		> 100 µM		> 100 µM		> 100 µM				> 100 µM		> 100 µM
